For orientation: pIC50 means the IC50 on a negative log10 scale, so that one unit is a factor of ten. A low value points to a high IC50.

pIC50: −log10 of the molar value.

For the test, the system named is HIV. Kind of test: Table 1 IC50 of the examples (assay method not given; patent concerns inhibiting HIV replication). Type of test: cell-based. The following applies: Human immunodeficiency virus 1.
For the compound `Cc1cc(Cl)cc(C(=O)N2CCc3c2cc(C)c([C@H](OC(C)(C)C)C(=O)O)c3-c2cc(F)c3c(c2C)CCCO3)c1` (atropisomer, axis not shown) [Example 141, (S)-2-(tert-Butoxy)-2-((R)-1-(3-chloro-5-methylbenzoyl)-4-(8-fluoro-5-methylchroman-6-yl)-6-methylindolin-5-yl)acetic acid], the pIC50 is 8.22.
The same measure for `COc1cc(C(=O)N2CCc3c2cc(C)c([C@H](OC(C)(C)C)C(=O)O)c3-c2cc(F)c3c(c2C)CCCO3)ccc1F` (atropisomer, axis not shown) [Example 142, (S)-2-(tert-Butoxy)-2-((R)-1-(4-fluoro-3-methoxybenzoyl)-4-(8-fluoro-5-methylchroman-6-yl)-6-methylindolin-5-yl)acetic acid]: 8.70; for `Cc1cc2c(c(-c3cc(F)c4c(c3C)CCCO4)c1[C@H](OC(C)(C)C)C(=O)O)CCN2C(=O)c1ccc(C(F)(F)F)cc1Cl` (atropisomer, axis not shown) [Example 144, (S)-2-(tert-Butoxy)-2-((R)-1-(2-chloro-4-(trifluoromethyl)benzoyl)-4-(8-fluoro-5-methylchroman-6-yl)-6-methylindolin-5-yl)acetic acid]: 7.59; for `Cc1cc2c(c(-c3cc(F)c4c(c3C)CCCO4)c1[C@H](OC(C)(C)C)C(=O)O)CCN2C(=O)c1cc(Cl)ccc1F` (atropisomer, axis not shown) [Example 145, (S)-2-(tert-Butoxy)-2-((R)-1-(5-chloro-2-fluorobenzoyl)-4-(8-fluoro-5-methylchroman-6-yl)-6-methylindolin-5-yl)acetic acid]: 7.85.
Turning to `Cc1ccc(C(=O)N2CCc3c2cc(C)c([C@H](OC(C)(C)C)C(=O)O)c3-c2cc(F)c3c(c2C)CCCO3)cc1C(F)(F)F` (atropisomer, axis not shown) [Example 146, (S)-2-(tert-Butoxy)-2-((R)-4-(8-fluoro-5-methylchroman-6-yl)-6-methyl-1-(4-methyl-3-(trifluoromethyl)benzoyl)indolin-5-yl)acetic acid], the pIC50 was 8.30.
In the case of `Cc1cc2c(c(-c3cc(F)c4c(c3C)CCCO4)c1[C@H](OC(C)(C)C)C(=O)O)CCN2C(=O)c1cc(Cl)cc(C(F)(F)F)c1` (atropisomer, axis not shown) [Example 147, (S)-2-(tert-Butoxy)-2-((R)-1-(3-chloro-5-(trifluoromethyl)benzoyl)-4-(8-fluoro-5-methylchroman-6-yl)-6-methylindolin-5-yl)acetic acid], the pIC50 is 7.77.
`Cc1cc2c(c(-c3cc(F)c4c(c3C)CCCO4)c1[C@H](OC(C)(C)C)C(=O)O)CCN2C(=O)c1ccc(Cl)c(C(F)(F)F)c1` (atropisomer, axis not shown) [Example 148, (S)-2-(tert-Butoxy)-2-((R)-1-(4-chloro-3-(trifluoromethyl)benzoyl)-4-(8-fluoro-5-methylchroman-6-yl)-6-methylindolin-5-yl)acetic acid] had a pIC50 of 8.10.
`Cc1ccc(Cl)cc1C(=O)N1CCc2c1cc(C)c([C@H](OC(C)(C)C)C(=O)O)c2-c1cc(F)c2c(c1C)CCCO2` (atropisomer, axis not shown) [Example 149] gave a negative-log IC50 (pIC50) of 8.30.
As for `Cc1cc2c(c(-c3cc(F)c4c(c3C)CCCO4)c1[C@H](OC(C)(C)C)C(=O)O)CCN2C(=O)c1cc(F)ccc1Cl` (atropisomer, axis not shown) [Example 150, (S)-2-(tert-Butoxy)-2-((R)-1-(2-chloro-5-fluorobenzoyl)-4-(8-fluoro-5-methylchroman-6-yl)-6-methylindolin-5-yl)acetic acid], the pIC50 is 8.10.
In turn, `COc1ccc(C(=O)N2CCc3c2cc(C)c([C@H](OC(C)(C)C)C(=O)O)c3-c2cc(F)c3c(c2C)CCCO3)c(C(F)(F)F)c1` (atropisomer, axis not shown) [Example 152, (S)-2-(tert-Butoxy)-2-((R)-4-(8-fluoro-5-methylchroman-6-yl)-1-(4-methoxy-2-(trifluoromethyl)benzoyl)-6-methylindolin-5-yl)acetic acid] had a pIC50 of 7.89.

These data come from patent publication US20190284136A1, “INDOLINE DERIVATIVES” (ViiV HEALTHCARE UK LIMITED, priority 2016, published 2019).
